Assay results taken from the supplement of paper PMC3974653.
Where a name gives a salt, the structure may show the parent alone.

System: MTT (mouse pheochromocytoma)
Test: IC50 of cell viability (ATP content)
Settings: (24 or 48 h)
Outline: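 After overnight culture at 37°C, 5% CO2 in white 1536-well plates, MTT mouse pheochromocytoma cells were given 23 nl of library compound in DMSO by pintool across 8 concentrations, spanning final 0.5 nM to 46 µM. Following 24 or 48 hrs, CellTiter-Glo luminescence was read after 15 minutes and normalised against positive-control (100%) and DMSO (0%) wells. A four-parameter logistic model provided the IC50.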

Row | Compound | IC50 of cell viability
1 | Cc1cccc(Cc2c[nH]cn2)c1C [Detomidine] | > 46 µM
2 | N[C@@H](Cc1cc(I)c(Oc2ccc(O)c(I)c2)c(I)c1)C(=O)O [Detrothyronin] | > 46 µM
3 | C[C@@H]1C[C@@H]2[C@H]3CC\C4=C\C(=O)\C=C/[C@]4(C)[C@]3(F)[C@@H](O)C[C@@]2(C)[C@@]1(O)C(=O)COC(C)=O [Dexamethasone acetate] | > 46 µM
4 | CN(C)CC[C@@H](c1ccc(Br)cc1)c1ccccn1 [Dexbrompheniramine maleate salt] | > 46 µM
5 | CC(C)Cc1ccc([C@H](C)C(=O)O)cc1 [Dexibuprofen] | > 46 µM
6 | Br.COc1ccc2c(c1)[C@]13CCCC[C@@H]1[C@H](C2)N(C)CC3.O [Dextromethorphan hydrobromide monohydrate] | > 46 µM
7 | CN1CC[C@@]23CCCC[C@@H]2[C@@H]1Cc1ccc(O)cc13 [Dextrorphan tartrate] | > 46 µM
8 | CCCCC(CC)COC(=O)c1ccccc1C(=O)OCC(CC)CCCC (centres undefined) [Di(2-ethylhexyl) phthalate] | > 46 µM
9 | CC(=O)Nc1ccc(OC(C)=O)cc1 [Diacetamate] | > 46 µM
10 | CC(=O)Nc1ccc(OCCOCCOc2ccc(NC(C)=O)cc2)cc1 [Diamfenetida] | > 46 µM
11 | CC(=O)Nc1c(I)c(NC(C)=O)c(I)c(C(=O)O)c1I [Diatrizoic acid dihydrate] | > 46 µM
12 | CN1C(=O)CN=C(c2ccccc2)c2cc(Cl)ccc21 [Diazepam] | > 46 µM
13 | CCOP(=S)(OCC)Oc1cc(C)nc(C(C)C)n1 [Diazinon] | > 46 µM
14 | CN(Cc1ccccc1)Cc1ccccc1 [Dibemethine] | > 46 µM
15 | CN(C)CCN1C(=O)c2ccccc2N(C)c2ccccc21 [Dibenzepina] | > 46 µM
16 | N=C(N)c1ccc(OCCCOc2ccc(C(=N)N)cc2Br)c(Br)c1 [Dibromopropamidine Dihydrochloride] | > 46 µM
17 | CCCCOc1cc(C(=O)NCCN(CC)CC)c2ccccc2n1 [Dibucaine] | > 46 µM
18 | CC(C)(C)c1ccc2c(S(=O)(=O)[O-])c(C(C)(C)C)ccc2c1 [Dibunic acid] | > 46 µM
19 | NCCN.[Cl-].[Cl-].[Pt+2] [Dichloro(ethylenediamine)platinum(II)] | > 46 µM
20 | O=C(O)C(Cl)Cl [Dichloroacetic acid] | > 46 µM
21 | N[S+](=O)([O-])c1cc(Cl)c(Cl)c([S+](N)(=O)[O-])c1 [Dichlorphenamide] | > 46 µM
22 | COP(=O)(OC)OC=C(Cl)Cl [Dichlorvos (Vapona)] | > 46 µM
23 | O=C(NC(O)C(Cl)(Cl)Cl)NC(O)C(Cl)(Cl)Cl (centres undefined) [Dicloralurea] | > 46 µM
24 | Cc1onc(-c2c(Cl)cccc2Cl)c1C(=O)N[C@@H]1C(=O)N2[C@@H]1SC(C)(C)[C@@H]2C(=O)[O-] [Dicloxacillin sodium salt monohydrate] | > 46 µM
25 | O\C1=C(/C/C2=C(\O)C3=C(OC2=O)C=CC=C3)C(=O)OC4=C1C=CC=C4 [Dicumarol] | > 46 µM
26 | C1CCC(NC2CCCCC2)CC1 [Dicyclohexylamine] | > 46 µM
27 | CCN(CC)CCOC(=O)C1(C2CCCCC2)CCCCC1 [Dicyclomine] | > 46 µM
28 | C1\C=C/C2C\3CC(\C=C3)C12 (centres undefined) [Dicyclopentadiene] | > 46 µM
29 | S=C(SSC(=S)N1CCCCC1)N1CCCCC1 [Dicyclopentamethylenethiuram disulfide] | > 46 µM
